Test results as given in ChEMBL document CHEMBL4304786, “A novel class of multitarget anti-Alzheimer benzohomoadamantane‒chlorotacrine hybrids modulating cholinesterases and glutamate NMDA receptors” (Eur J Med Chem, 2019).
pIC50, pKi: −log10 of the molar value.

Columns and labels:
Glutamate NMDA receptor = assay: Antagonist activity at NMDA receptor in rat CGN cells assessed as […] in intracellular calcium level incubated for 30 mins in presence of Fura-2AM followed by NMDA/glycine stimulation by fluorescence spectrometer analysis; format: cell-based
[1] = target: Beta-secretase 1 (Homo sapiens) (UniProt P56817); assay: Inhibition of human recombinant BACE-1 expressed in baculovirus expression system at 5 uM using panvera peptide as substrate measured after 1 hr by FRET assay relative to control
Chain of Beta-secretase 1 (Homo sapiens) (P56817 whole entry): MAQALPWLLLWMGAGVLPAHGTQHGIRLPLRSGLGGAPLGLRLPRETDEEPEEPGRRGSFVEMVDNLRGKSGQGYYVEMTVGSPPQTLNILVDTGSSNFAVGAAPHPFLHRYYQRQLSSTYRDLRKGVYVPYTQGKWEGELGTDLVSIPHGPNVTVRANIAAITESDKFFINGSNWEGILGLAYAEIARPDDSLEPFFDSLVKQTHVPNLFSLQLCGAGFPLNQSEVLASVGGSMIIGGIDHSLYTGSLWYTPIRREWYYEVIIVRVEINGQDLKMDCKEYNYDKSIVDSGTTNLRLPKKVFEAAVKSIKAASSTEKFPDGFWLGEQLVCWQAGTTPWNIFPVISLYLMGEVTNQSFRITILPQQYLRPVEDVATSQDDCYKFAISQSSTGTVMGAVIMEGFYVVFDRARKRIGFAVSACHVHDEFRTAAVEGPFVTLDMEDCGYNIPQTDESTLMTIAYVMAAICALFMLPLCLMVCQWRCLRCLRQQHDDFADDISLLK

[2] = target: T1, Glutamate NMDA receptor (Rattus norvegicus) (UniProt P35439+Q00959+Q00960+Q00961+Q62645+Q8VHN2+Q9R1M7); assay: Potency index, ratio of memantine IC50 to compound IC50 for antagonist activity at NMDA receptor in rat CGN cells; format: cell-based
in vitro = conditions: PAMPA
Description: Permeability of the compound measured after compound dilution in PBS/EtOH buffer (70:30) by PAMPA-BBB assay

Acetylcholinesterase [3] = target: T2, Acetylcholinesterase (Homo sapiens, UniProt P22303); assay: Potency index, ratio of IC50 for 6-cholorotacrine to compound IC50 for Inhibition of human recombinant AChE expressed in HEK293 cells; format: cell-based
T2 sequence (P22303 whole entry): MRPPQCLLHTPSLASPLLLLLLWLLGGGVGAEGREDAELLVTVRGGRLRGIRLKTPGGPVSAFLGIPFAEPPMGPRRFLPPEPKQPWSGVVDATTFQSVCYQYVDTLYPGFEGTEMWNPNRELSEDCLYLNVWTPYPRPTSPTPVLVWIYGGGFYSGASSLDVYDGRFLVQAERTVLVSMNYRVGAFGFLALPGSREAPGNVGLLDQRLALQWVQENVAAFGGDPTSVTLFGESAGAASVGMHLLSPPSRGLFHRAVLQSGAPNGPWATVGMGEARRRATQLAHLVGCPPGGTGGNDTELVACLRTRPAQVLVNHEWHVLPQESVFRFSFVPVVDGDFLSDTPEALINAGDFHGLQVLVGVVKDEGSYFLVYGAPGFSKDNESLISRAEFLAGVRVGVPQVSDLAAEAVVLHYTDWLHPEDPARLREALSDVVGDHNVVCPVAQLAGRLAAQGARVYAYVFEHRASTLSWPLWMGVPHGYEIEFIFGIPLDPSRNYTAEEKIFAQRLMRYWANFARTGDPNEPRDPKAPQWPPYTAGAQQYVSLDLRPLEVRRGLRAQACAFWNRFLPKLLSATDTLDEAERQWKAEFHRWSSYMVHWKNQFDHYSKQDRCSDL

Cholinesterase [4] = target: T3, Cholinesterase (Homo sapiens, UniProt P06276); assay: Inhibition of human serum BChE using butyrylthiocholine iodide as substrate preincubated for 20 mins followed by substrate addition by spectrophotometry analysis
T3 sequence (P06276 whole entry): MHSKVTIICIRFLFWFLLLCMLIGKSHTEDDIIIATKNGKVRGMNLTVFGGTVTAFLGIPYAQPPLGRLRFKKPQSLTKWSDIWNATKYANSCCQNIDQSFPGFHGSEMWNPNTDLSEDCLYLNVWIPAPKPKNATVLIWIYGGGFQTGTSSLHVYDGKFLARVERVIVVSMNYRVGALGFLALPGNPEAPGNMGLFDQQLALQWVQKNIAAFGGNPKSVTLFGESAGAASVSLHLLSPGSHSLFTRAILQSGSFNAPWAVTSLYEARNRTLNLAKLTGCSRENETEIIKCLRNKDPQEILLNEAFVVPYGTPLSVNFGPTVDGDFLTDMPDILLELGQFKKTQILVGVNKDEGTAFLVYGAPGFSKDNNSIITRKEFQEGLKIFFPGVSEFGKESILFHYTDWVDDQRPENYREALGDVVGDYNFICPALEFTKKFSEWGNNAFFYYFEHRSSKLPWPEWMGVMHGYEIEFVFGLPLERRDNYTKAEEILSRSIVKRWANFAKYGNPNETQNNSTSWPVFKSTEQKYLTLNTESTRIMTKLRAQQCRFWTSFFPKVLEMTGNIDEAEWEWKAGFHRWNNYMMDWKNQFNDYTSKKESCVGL

[5] = target: Microtubule-associated protein tau (Homo sapiens) (UniProt P10636); assay: Inhibition of tau aggregation (unknown origin) expressed in Escherichia coli BL21 (DE3) at 10 uM by Thioflavin S steady state fluorescence assay relative to control
Chain of Microtubule-associated protein tau (Homo sapiens) (P10636 whole entry): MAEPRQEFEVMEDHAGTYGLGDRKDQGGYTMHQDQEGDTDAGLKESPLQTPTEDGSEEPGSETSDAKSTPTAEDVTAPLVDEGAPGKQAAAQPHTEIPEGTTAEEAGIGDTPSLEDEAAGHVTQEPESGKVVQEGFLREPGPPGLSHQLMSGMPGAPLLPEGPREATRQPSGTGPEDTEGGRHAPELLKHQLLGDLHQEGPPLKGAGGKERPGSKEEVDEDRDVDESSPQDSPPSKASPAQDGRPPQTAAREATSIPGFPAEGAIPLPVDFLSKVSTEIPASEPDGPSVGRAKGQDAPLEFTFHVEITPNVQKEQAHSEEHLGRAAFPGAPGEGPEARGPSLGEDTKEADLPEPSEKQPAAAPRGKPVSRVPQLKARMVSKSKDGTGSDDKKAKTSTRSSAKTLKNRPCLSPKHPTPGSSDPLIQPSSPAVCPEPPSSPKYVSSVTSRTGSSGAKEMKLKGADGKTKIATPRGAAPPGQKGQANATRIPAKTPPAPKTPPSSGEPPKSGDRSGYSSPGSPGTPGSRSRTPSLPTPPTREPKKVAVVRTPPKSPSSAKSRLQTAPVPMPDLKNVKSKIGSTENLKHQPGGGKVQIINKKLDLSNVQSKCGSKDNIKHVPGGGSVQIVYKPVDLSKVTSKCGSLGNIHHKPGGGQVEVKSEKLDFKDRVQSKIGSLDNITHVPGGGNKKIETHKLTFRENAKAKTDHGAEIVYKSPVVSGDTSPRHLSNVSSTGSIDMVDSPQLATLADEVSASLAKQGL

[6] = target: Amyloid-beta precursor protein (Homo sapiens) (UniProt P05067); assay: Inhibition of human recombinant amyloid beta (1 to 42) aggregation expressed in Escherichia coli BL21 (DE3) at 10 uM by Thioflavin S steady state fluorescence assay relative to control
Chain of Amyloid-beta precursor protein (Homo sapiens) (P05067 whole entry): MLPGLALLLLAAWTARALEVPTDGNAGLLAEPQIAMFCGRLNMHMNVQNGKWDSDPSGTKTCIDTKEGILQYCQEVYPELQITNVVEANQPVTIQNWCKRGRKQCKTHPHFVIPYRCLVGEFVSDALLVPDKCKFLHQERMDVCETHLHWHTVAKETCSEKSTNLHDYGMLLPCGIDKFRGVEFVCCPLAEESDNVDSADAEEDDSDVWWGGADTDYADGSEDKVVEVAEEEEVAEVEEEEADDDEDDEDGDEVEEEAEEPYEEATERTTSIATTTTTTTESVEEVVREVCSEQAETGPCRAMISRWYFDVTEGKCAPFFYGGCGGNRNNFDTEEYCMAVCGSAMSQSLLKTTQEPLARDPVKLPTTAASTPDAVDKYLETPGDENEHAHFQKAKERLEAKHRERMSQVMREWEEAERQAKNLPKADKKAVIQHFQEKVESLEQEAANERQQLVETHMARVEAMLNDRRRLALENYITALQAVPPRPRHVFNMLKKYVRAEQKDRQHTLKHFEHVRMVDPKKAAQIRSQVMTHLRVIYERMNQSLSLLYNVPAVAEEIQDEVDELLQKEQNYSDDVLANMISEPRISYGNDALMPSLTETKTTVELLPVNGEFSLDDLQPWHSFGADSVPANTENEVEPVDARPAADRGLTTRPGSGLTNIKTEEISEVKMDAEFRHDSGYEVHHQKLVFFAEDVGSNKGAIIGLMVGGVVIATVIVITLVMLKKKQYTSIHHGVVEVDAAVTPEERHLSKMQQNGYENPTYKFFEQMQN

[7] = target: T1, Glutamate NMDA receptor (Rattus norvegicus); assay: Potency index, ratio of benzoho-moadamantanamine IC50 to compound IC50 for antagonist activity at NMDA receptor in rat CGN cells; format: cell-based
Cholinesterase [8] = target: T3, Cholinesterase; assay: Potency index, ratio of IC50 for 6-cholorotacrine to compound IC50 for Inhibition of human serum BChE
Acetylcholinesterase [9] = target: T2, Acetylcholinesterase; assay: Inhibition of human recombinant AChE expressed in HEK293 cells using acetylthiocholine iodide as substrate preincubated for 20 mins followed by substrate addition by spectrophotometry analysis
[10] = target: Glutamate NMDA receptor; GRIN1/GRIN2B (Homo sapiens, UniProt Q05586+Q13224); assay: Inhibition of recombinant GluN1/GluN2B receptor (unknown origin) expressed in HEK293 cells by patch-clamp method; format: cell-based
Chain of Glutamate NMDA receptor; GRIN1/GRIN2B (Q13224 whole entry, other chains not shown): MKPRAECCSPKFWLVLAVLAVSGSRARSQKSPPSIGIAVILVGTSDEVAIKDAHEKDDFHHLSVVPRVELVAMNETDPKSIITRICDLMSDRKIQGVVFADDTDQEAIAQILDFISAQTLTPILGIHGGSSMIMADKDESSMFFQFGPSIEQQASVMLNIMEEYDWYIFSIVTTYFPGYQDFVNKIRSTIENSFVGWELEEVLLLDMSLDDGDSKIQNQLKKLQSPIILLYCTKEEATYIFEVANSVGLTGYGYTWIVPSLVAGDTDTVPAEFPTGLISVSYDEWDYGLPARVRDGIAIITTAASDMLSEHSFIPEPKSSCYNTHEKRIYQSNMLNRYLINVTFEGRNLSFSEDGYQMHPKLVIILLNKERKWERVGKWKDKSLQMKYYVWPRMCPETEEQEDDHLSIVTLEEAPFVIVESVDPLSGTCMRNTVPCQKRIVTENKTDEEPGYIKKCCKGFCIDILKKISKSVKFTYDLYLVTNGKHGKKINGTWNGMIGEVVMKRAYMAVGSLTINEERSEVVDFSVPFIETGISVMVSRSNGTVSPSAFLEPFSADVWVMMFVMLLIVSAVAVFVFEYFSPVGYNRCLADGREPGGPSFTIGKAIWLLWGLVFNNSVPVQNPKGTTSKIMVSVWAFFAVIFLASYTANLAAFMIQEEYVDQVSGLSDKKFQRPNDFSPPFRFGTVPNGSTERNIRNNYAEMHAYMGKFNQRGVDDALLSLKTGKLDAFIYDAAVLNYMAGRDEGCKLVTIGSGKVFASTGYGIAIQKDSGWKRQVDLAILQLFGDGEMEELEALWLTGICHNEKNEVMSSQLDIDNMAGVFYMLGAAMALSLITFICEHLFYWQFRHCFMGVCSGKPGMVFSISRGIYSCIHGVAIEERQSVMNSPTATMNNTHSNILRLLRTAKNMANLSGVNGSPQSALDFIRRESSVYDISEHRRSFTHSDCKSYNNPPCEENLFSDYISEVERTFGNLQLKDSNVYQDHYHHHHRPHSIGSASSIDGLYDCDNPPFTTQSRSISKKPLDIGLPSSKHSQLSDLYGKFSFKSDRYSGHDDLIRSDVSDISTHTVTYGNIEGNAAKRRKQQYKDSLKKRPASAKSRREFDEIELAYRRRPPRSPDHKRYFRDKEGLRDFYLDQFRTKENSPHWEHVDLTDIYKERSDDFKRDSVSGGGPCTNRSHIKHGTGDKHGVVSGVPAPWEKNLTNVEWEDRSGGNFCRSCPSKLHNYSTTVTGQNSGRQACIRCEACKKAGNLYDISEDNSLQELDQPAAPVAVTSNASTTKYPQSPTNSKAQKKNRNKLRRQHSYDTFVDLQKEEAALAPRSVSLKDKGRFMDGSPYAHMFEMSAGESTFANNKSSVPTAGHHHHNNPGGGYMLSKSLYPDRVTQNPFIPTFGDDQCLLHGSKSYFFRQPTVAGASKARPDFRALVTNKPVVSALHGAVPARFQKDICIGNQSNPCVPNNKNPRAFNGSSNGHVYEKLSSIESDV

SMILES | pIC50 (Glutamate NMDA receptor) | inhibition [1] [%] | Ratio IC50 [2] | Papp (in vitro) [×10⁻⁶ cm/s] | Ratio IC50 (Acetylcholinesterase [3]) | pIC50 (Cholinesterase [4]) | inhibition [5] [%] | inhibition [6] [%] | Ratio IC50 [7] | Ratio IC50 (Cholinesterase [8]) | pIC50 (Acetylcholinesterase [9]) | pKi [10]
NC12CC3CC(F)(CC(C1)c1ccccc13)C2 | 5.72 | 18 | 1.7 | – | – | – | – | – | – | – | – | –
FC12CC3CC(NCCCCCNc4c5c(nc6cc(Cl)ccc46)CCCC5)(CC(C1)c1ccccc13)C2 | 6.05 | 18 | 1.7 | 6.5 | 6 to 44 | 6.70 | 20.7 | 12.3 | 2 | 2 | 8.85 | –
CC12CC3CC(C)(C1)CC(N)(C3)C2 | – | 18 | – | – | – | – | – | – | – | – | – | –
FC12CC3CC(NCCCCNc4c5c(nc6cc(Cl)ccc46)CCCC5)(CC(C1)c1ccccc13)C2 | 5.48 | 18 | – | 6.3 | 6 to 44 | 5.96 | 22 | 8.4 | – | – | 8.70 | –
COc1ccc2nc3c(c(NCCCCCNC(=S)NC45CC6CC(CC(C6)C4)C5)c2c1)CCCC3 | – | – | – | – | – | – | – | – | – | – | – | 5.74
Nc1c2c(nc3cc(Cl)ccc13)CCCC2 | – | 18 | – | 20 | – | – | < 5 | – | – | – | – | –
O=C(CCCNc1c2c(nc3cc(Cl)ccc13)CCCC2)NC12CC3CC(F)(CC(C1)c1ccccc13)C2 | 5.15 | 18 | – | 9.8 | 6 to 44 | 5.64 | 10.2 | < 5 | – | – | 8.85 | –
NC12CC3CC(F)(CC(C1)c1cc(NC(=O)CCCNc4c5c(nc6cc(Cl)ccc46)CCCC5)ccc13)C2 (configuration not stated) | 5.92 | 18 | 1.7 | 2.7 | 6 to 44 | 6.30 | 6.9 | < 5 | 2 | – | 9.52 | –
O=C(CCCCNc1c2c(nc3cc(Cl)ccc13)CCCC2)NC12CC3CC(F)(CC(C1)c1ccccc13)C2 | 5.08 | 18 | – | 9 | 6 to 44 | 5.62 | 12.6 | 9 | – | – | 8.89 | –
NC12CC3CC(F)(CC(C1)c1cc(NC(=O)CCCCNc4c5c(nc6cc(Cl)ccc46)CCCC5)ccc13)C2 (configuration not stated) | 5.47 | 18 | – | 3.1 | 44 | 7.70 | 22.9 | < 5 | – | 24 | 8.60 | –
